Data on 2 molecules can be found in PMC10349829, “Functional characterization of the transient receptor potential melastatin 2 (TRPM2) cation channel from Nematostella vectensis reconstituted into lipid bilayer” (Scientific Reports, 2023).

Where two headings read alike, the source gives them in different places.

The experiment addresses T1, nvTRPM2 (transient receptor potential melastatin 2) (Nematostella vectensis, UniProt A7T1N0).
T1 construct: gene TRPM2; purified and reconstituted into planar lipid bilayers
Briefly: single-channel recording of purified channel in planar lipid bilayers (activation). The format is biochemical.

T1 sequence (A7T1N0 whole entry): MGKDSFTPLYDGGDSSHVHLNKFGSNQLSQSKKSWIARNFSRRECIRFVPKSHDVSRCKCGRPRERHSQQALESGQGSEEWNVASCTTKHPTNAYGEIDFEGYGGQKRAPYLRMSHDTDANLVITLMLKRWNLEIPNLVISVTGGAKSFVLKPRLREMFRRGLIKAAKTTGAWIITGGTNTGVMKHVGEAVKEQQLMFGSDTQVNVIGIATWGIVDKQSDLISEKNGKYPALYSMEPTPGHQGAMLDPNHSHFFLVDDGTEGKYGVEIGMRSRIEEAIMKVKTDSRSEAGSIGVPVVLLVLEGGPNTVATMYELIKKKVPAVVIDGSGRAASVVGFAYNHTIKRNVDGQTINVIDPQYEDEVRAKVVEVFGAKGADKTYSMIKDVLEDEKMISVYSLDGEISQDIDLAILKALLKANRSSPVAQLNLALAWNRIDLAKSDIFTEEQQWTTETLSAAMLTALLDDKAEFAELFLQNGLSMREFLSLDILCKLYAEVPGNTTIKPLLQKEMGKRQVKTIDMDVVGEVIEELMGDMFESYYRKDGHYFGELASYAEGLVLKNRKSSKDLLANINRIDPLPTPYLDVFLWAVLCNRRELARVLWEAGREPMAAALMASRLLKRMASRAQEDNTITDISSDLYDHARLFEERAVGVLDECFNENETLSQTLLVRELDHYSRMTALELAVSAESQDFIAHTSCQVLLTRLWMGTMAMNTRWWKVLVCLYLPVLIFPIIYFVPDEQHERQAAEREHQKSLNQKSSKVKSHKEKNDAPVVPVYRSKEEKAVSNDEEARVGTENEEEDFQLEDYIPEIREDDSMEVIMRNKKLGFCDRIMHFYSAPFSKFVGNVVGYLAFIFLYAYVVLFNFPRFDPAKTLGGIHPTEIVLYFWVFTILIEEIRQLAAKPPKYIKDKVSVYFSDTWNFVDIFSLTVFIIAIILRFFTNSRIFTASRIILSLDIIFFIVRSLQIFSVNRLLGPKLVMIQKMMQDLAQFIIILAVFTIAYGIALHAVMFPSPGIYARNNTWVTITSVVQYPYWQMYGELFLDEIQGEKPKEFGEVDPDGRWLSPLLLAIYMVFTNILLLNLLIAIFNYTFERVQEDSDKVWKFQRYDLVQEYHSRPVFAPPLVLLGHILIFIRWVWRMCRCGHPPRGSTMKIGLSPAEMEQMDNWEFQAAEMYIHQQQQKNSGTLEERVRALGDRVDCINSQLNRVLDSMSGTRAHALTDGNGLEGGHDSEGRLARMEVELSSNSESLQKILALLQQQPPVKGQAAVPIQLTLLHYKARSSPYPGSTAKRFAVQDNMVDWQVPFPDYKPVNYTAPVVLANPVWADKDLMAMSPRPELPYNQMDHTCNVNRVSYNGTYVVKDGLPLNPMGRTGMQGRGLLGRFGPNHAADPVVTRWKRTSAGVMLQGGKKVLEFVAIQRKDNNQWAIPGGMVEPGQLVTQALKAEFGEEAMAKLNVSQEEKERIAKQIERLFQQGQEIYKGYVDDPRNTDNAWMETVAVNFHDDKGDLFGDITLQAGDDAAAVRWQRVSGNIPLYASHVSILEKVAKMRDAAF

Take `Nc1ncnc2c1ncn2[C@@H]1O[C@H](COP(=O)(O)OP(=O)(O)OC[C@H]2OC(O)[C@H](O)[C@@H]2O)[C@@H](O)[C@H]1OP(=O)(O)O` (some centres unmarked) [ADPRP]: the EC50 – broadly, the midpoint of the concentration-response curve – is about 200 nM.

As to `Nc1ncnc2c1ncn2[C@@H]1O[C@H](COP(=O)(O)OP(=O)(O)OC[C@H]2OC(O)[C@H](O)[C@@H]2O)[C@@H](O)[C@H]1O` (some centres unmarked) [ADPR], the EC50 (read-out: EC50) is about 1000 nM.
